Columns and labels:
Format in all cases: in vivo
[1] = test system: Abutilon theophrasti (ABUTH); experiment: Post-emergence herbicide glasshouse test; conditions: 250 g/ha, sprayed after 8 days cultivation, evaluated after 13 days
Method: (§1) Seeds of a variety of test species (Abutilon theophrasti (ABUTH), Amaranthus retoflexus (AMARE), Echinochloa crus-galli (ECHCG), Ipomoea hederacea (IPOHE), Setaria faberi (SETFA)) are sown in standard soil in pots. After cultivation for one day (pre-emergence) or after 8 days cultivation (post-emergence) under controlled conditions in a glasshouse (at 24/16° C., day/night; 14 hours light; 65% humidity), the plants are sprayed with an aqueous spray solution derived from the formulation of the technical active ingredient in acetone/water (50:50) solution containing 0.5% Tween 20 (polyoxyethelyene sorbitan monolaurate, CAS RN 9005-64-5). Compounds are applied at 250 g/ha unless otherwise stated. The test plants are then grown in a glasshouse under controlled conditions in a glasshouse (at 24/16° C., day/night; 14 hours light; 65% humidity) and watered twice daily. After 13 days for pre- and post-emergence, the test is evaluated for the percentage damage caused to the plant. The biological activities are shown in the following table on a five-point scale (5=81-100%; 4=61-80%; 3=41-60%; 2=21-40%; 1=0-20%).

[2] = test system: Echinochloa crus-galli (ECHCG); experiment: Post-emergence herbicide glasshouse test; conditions: 250 g/ha, sprayed after 8 days cultivation, evaluated after 13 days
Method: as §1

Setaria faberi (SETFA) [3] = experiment: Post-emergence herbicide glasshouse test; conditions: 250 g/ha, sprayed after 8 days cultivation, evaluated after 13 days
Method: as §1

[4] = test system: Ipomoea hederacea (IPOHE); experiment: Post-emergence herbicide glasshouse test; conditions: 250 g/ha, sprayed after 8 days cultivation, evaluated after 13 days
Method: as §1

[5] = test system: Amaranthus retoflexus (AMARE); experiment: Post-emergence herbicide glasshouse test; conditions: 250 g/ha, sprayed after 8 days cultivation, evaluated after 13 days
Method: as §1

[6] = test system: Abutilon theophrasti (ABUTH); experiment: Pre-emergence herbicide glasshouse test; conditions: 250 g/ha, sprayed after one day cultivation, evaluated after 13 days
Method: as §1

[7] = test system: Echinochloa crus-galli (ECHCG); experiment: Pre-emergence herbicide glasshouse test; conditions: 250 g/ha, sprayed after one day cultivation, evaluated after 13 days
Method: as §1

Setaria faberi (SETFA) [8] = experiment: Pre-emergence herbicide glasshouse test; conditions: 250 g/ha, sprayed after one day cultivation, evaluated after 13 days
Method: as §1

[9] = test system: Ipomoea hederacea (IPOHE); experiment: Pre-emergence herbicide glasshouse test; conditions: 250 g/ha, sprayed after one day cultivation, evaluated after 13 days
Method: as §1

[10] = test system: Amaranthus retoflexus (AMARE); experiment: Pre-emergence herbicide glasshouse test; conditions: 250 g/ha, sprayed after one day cultivation, evaluated after 13 days
Method: as §1

SMILES | percentage damage caused to the plant, ABUTH [1] | percentage damage caused to the plant, ECHCG [2] | percentage damage caused to the plant, SETFA (Setaria faberi (SETFA) [3]) | percentage damage caused to the plant, IPOHE [4] | percentage damage caused to the plant, AMARE [5] | percentage damage caused to the plant, ABUTH [6] | percentage damage caused to the plant, ECHCG [7] | percentage damage caused to the plant, SETFA (Setaria faberi (SETFA) [8]) | percentage damage caused to the plant, IPOHE [9] | percentage damage caused to the plant, AMARE [10]
FC(F)(F)c1cc(Oc2cccc(Cl)n2)n(-c2ncc(Cl)cn2)n1 [Compound 1.001] | 2 (2=21-40%) | 4 (4=61-80%) | 3 (3=41-60%) | 2 (2=21-40%) | 5 (5=81-100%) | 1 (1=0-20%) | 5 (5=81-100%) | 5 (5=81-100%) | 1 (1=0-20%) | 5 (5=81-100%)
FC(F)Oc1cccc(Oc2cc(C(F)(F)F)nn2-c2ncc(Cl)cn2)n1 [Compound 1.002] | 5 (5=81-100%) | 5 (5=81-100%) | 5 (5=81-100%) | 4 (4=61-80%) | 5 (5=81-100%) | 4 (4=61-80%) | 5 (5=81-100%) | 5 (5=81-100%) | 3 (3=41-60%) | 5 (5=81-100%)
N#Cc1cccc(Oc2cc(C(F)(F)F)nn2-c2ncc(Cl)cn2)n1 [Compound 1.023] | – | 4 (4=61-80%) | 4 (4=61-80%) | 3 (3=41-60%) | 4 (4=61-80%) | – | 4 (4=61-80%) | 5 (5=81-100%) | 4 (4=61-80%) | 5 (5=81-100%)
FC(F)(F)c1cc(Oc2ccnc(C(F)(F)F)n2)n(-c2ncc(Cl)cn2)n1 [Compound 1.011] | – | 4 (4=61-80%) | 4 (4=61-80%) | 1 (1=0-20%) | 4 (4=61-80%) | – | 4 (4=61-80%) | 5 (5=81-100%) | 1 (1=0-20%) | 5 (5=81-100%)
Fc1cnc(-n2nc(C(F)(F)F)cc2Oc2cccc(OC(F)F)n2)nc1 [Compound 1.005, 2-[5-[[6-(difluoromethoxy)-2-pyridyl]oxy]-3-(trifluoromethyl)pyrazol-1-yl]-5-fluoro-pyrimidine] | 5 (5=81-100%) | 4 (4=61-80%) | 4 (4=61-80%) | 4 (4=61-80%) | 5 (5=81-100%) | 4 (4=61-80%) | 5 (5=81-100%) | 5 (5=81-100%) | 5 (5=81-100%) | 5 (5=81-100%)
Fc1cnc(-n2nc(C(F)(F)F)cc2Oc2cccc(C(F)(F)F)n2)nc1 [Compound 1.024] | – | 1 (1=0-20%) | 1 (1=0-20%) | 1 (1=0-20%) | 2 (2=21-40%) | – | 1 (1=0-20%) | 1 (1=0-20%) | 1 (1=0-20%) | 5 (5=81-100%)
FC(F)Oc1cccc(Oc2cc(C(F)(F)F)nn2-c2ncccn2)n1 [Compound 1.027] | – | 1 (1=0-20%) | 1 (1=0-20%) | 2 (2=21-40%) | 4 (4=61-80%) | – | 1 (1=0-20%) | 1 (1=0-20%) | 2 (2=21-40%) | 3 (3=41-60%)
N#Cc1ccc(-n2nc(C(F)(F)F)cc2Oc2cccc(OC(F)F)n2)nc1 [Compound 1.029] | – | 1 (1=0-20%) | 1 (1=0-20%) | 3 (3=41-60%) | 5 (5=81-100%) | – | 2 (2=21-40%) | 2 (2=21-40%) | 1 (1=0-20%) | 4 (4=61-80%)
FC(F)(F)c1cc(Oc2ccnc(Cl)n2)n(-c2ncc(Cl)cn2)n1 [Compound 1.012] | – | 1 (1=0-20%) | 1 (1=0-20%) | 1 (1=0-20%) | 2 (2=21-40%) | – | 1 (1=0-20%) | 2 (2=21-40%) | 1 (1=0-20%) | 3 (3=41-60%)
COc1ccnc(-n2nc(C(F)(F)F)cc2Oc2cccc(OC(F)F)n2)n1 [Compound 1.026] | 1 (1=0-20%) | 1 (1=0-20%) | 1 (1=0-20%) | 1 (1=0-20%) | 3 (3=41-60%) | 2 (2=21-40%) | 1 (1=0-20%) | 1 (1=0-20%) | 1 (1=0-20%) | 4 (4=61-80%)
N#Cc1cc(Cl)cnc1-n1nc(C(F)(F)F)cc1Oc1cccc(OC(F)F)n1 [Compound 1.030] | – | 1 (1=0-20%) | 2 (2=21-40%) | 1 (1=0-20%) | 3 (3=41-60%) | – | 1 (1=0-20%) | 1 (1=0-20%) | 1 (1=0-20%) | 2 (2=21-40%)
Fc1cc(Cl)cnc1-n1nc(C(F)(F)F)cc1Oc1cccc(OC(F)F)n1 [Compound 1.031] | – | 1 (1=0-20%) | 2 (2=21-40%) | 1 (1=0-20%) | 4 (4=61-80%) | – | 1 (1=0-20%) | 2 (2=21-40%) | 1 (1=0-20%) | –
FC(F)(F)c1cccc(Oc2cc(C(F)(F)F)nn2-c2ncc(Cl)cn2)n1 [Compound 1.004] | 4 (4=61-80%) | 4 (4=61-80%) | 4 (4=61-80%) | 3 (3=41-60%) | 5 (5=81-100%) | 4 (4=61-80%) | 5 (5=81-100%) | 5 (5=81-100%) | 2 (2=21-40%) | 5 (5=81-100%)
FC(F)Oc1cnc(-n2nc(C(F)(F)F)cc2Oc2cccc(OC(F)F)n2)nc1 [Compound 1.028] | – | 5 (5=81-100%) | 5 (5=81-100%) | 3 (3=41-60%) | 5 (5=81-100%) | – | 5 (5=81-100%) | 5 (5=81-100%) | 1 (1=0-20%) | 5 (5=81-100%)
Cc1nccc(Oc2cc(C(F)(F)F)nn2-c2ncc(Cl)cn2)n1 [Compound 1.015] | – | 1 (1=0-20%) | 1 (1=0-20%) | 1 (1=0-20%) | 2 (2=21-40%) | – | 1 (1=0-20%) | 2 (2=21-40%) | 1 (1=0-20%) | 3 (3=41-60%)
FC(F)c1cccc(Oc2cc(C(F)(F)F)nn2-c2ncc(Cl)cn2)n1 [Compound 1.003] | 3 (3=41-60%) | 4 (4=61-80%) | 4 (4=61-80%) | 4 (4=61-80%) | 5 (5=81-100%) | 1 (1=0-20%) | 4 (4=61-80%) | 2 (2=21-40%) | 2 (2=21-40%) | 5 (5=81-100%)
